# According to US8710077B2, “Cycloalkylamine substituted isoquinoline and isoquinolinone derivatives” (Sanofi, priority 2006, dated 2014):
# Biological target: T1, human recombinant ROCK II (Homo sapiens, UniProt O75116)
# T1 construct: recombinant human ROCK-II residues 11-552; His6 (N); purchased Upstate Ltd., Dundee, UK
# Test: Determination of Rho Kinase Inhibition (Caliper peptide phosphorylation assay)
# Format: biochemical
# Conditions: ROCK II residues 11-552, 60 min at 32° C., compound in the form (salt or free base) obtained in the examples
# Procedure: Determination of Rho Kinase Inhibition
# To measure Rho-kinase inhibition, IC50 values were determined according to the following protocol:
# Active human recombinant ROCK II (N-terminal His6-tagged recombinant human ROCK-II residues 11-552) was purchased from Upstate Ltd., Dundee, UK. The peptide substrate, Fluorescein-AKRRRLSSLRA-COOH, was obtained from JPT Peptide Technologies, Berlin, Germany. Adenosine-5′-triphosphate (ATP), bovine serum albumine (BSA), dimethylsulphoxide (DMSO), 4-(2-Hydroxyethyl)piperazine-1-ethanesulfonic acid (Hepes), Brij-35 and dithiothreitol (DTT) were purchased from Sigma-Aldrich, Munich, Germany. Tris(hydroxymethyl)-aminomethane (Tris), magnesium chloride, NaOH, 1M HCl and EDTA were obtained from Merck Biosciences, Darmstadt, Germany. “Complete” protease inhibitor was from Roche Diagnostics, Mannheim, Germany.
# Test compounds were diluted to the appropriate concentrations in buffer 1 (25 mM Tris-HCl, pH 7.4, 5 mM MgCl2, 2 mM DTT, 0.02% (w/v) BSA and 3% DMSO). The ROCK II enzyme was diluted to a concentration of 100 ng/ml in buffer 2 (25 mM Tris-HCl, pH 7.4, 5 mM MgCl2, 2 mM DTT and 0.02% (w/v) BSA). The peptide substrate and ATP were diluted to concentrations of 3 μM and 120 μM, respectively, in the buffer 2. Two μl of the compound solution were mixed with 2 μl of the diluted enzyme in a 384-well small volume microtiter plate (Greiner, Bio-One, Frickenhausen, Germany), and the kinase reaction was initiated by addition of 2 μl of the solution containing peptide substrate and ATP. After 60 min incubation at 32° C., the reaction was stopped by addition of 20 μl of a solution containing 100 mM Hepes-NaOH, pH 7.4, 0.015% (v/v) Brij-35, 45 mM EDTA and 0.227% chip coating reagent 1 (Caliper Lifescience Inc, Hopkinton, Mass.). Phosphorylation of the substrate peptide was then detected on a Caliper 3000 instrument essentially as described by Pommereau et al (J. Biomol. Screening 9 (5), 409-416, 2004). Separation conditions were as follows: Pressure—1.3 psi, upstream voltage—1562 V, downstream voltage—500 V, sample sip time 200 ms. Positive controls (buffer 1 instead of compound) and negative controls (buffer 1 instead of compound and buffer 2 instead of ROCK II) were run in parallel on each plate.
# The following products/compounds were tested in said assay by using the respective form (salt or free base) obtained as in the examples described above and the following activities were measured.
# T1 sequence (O75116 11-552): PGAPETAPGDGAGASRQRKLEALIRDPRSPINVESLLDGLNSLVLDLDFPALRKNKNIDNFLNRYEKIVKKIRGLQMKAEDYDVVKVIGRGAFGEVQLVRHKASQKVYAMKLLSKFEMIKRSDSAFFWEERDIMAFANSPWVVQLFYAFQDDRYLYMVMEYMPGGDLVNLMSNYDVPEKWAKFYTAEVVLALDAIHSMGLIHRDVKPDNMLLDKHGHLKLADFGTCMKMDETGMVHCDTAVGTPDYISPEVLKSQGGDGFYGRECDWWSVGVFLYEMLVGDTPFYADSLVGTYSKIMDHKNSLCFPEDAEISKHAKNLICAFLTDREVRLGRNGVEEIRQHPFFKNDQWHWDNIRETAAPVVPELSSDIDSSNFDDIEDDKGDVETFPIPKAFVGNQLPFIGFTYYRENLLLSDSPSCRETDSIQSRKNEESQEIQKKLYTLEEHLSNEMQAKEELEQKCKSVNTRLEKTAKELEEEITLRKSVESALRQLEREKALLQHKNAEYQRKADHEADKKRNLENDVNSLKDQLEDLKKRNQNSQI
row,IC50 [nM],Structure (SMILES)
1,≤ 1000,"COc1ccc(C2(CN)CCC(Oc3cc4cc[nH]c(=O)c4cc3Cl)CC2)cc1OC (stereo not drawn) [Compound 112, 6-[4-Aminomethyl-4-(3,4-dimethoxy-phenyl)-cyclohexyloxy]-7-chloro-2H-isoquinolin-1-one]"
2,≤ 1000,"NCC1(c2ccccc2)CCC(Oc2cc3ccncc3cc2Cl)CC1 (stereo not drawn) [Compound 120, C-[4-(7-Chloro-isoquinolin-6-yloxy)-1-phenyl-cyclohexyl]-methylamine]"
3,≤ 1000,"NCC1(c2cccc(Cl)c2)CCC(Oc2cc3cc[nH]c(=O)c3cc2Cl)CC1 (stereo not drawn) [Compound 110, 6-[4-Aminomethyl-4-(3-chloro-phenyl)-cyclohexyloxy]-7-chloro-2H-isoquinolin-1-one]"
4,≤ 1000,"NCC1(c2ccccc2)CCC(Oc2cc3cc[nH]c(=O)c3cc2Cl)CC1 (stereo not drawn) [Compound 108, 6-(4-Aminomethyl-4-phenyl-cyclohexyloxy)-7-chloro-2H-isoquinolin-1-one]"
5,≤ 1000,"NCC1(c2ccc(Cl)cc2)CCC(Oc2cc3cc[nH]c(=O)c3cc2Cl)CC1 (stereo not drawn) [Compound 109, 6-[4-Aminomethyl-4-(4-chloro-phenyl)-cyclohexyloxy]-7-chloro-2H-isoquinolin-1-one]"
6,≤ 1000,"NCC1(c2ccc(Cl)c(Cl)c2)CCC(Oc2cc3cc[nH]c(=O)c3cc2Cl)CC1 (stereo not drawn) [Compound 116, 6-[4-Aminomethyl-4-(3,4-dichloro-phenyl)-cyclohexyloxy]-7-chloro-2H-isoquinolin-1-one]"
7,1000 to 10000,"Cc1cccc(C2(CN)CCC(Oc3cc4cc[nH]c(=O)c4cc3Cl)CC2)c1 (stereo not drawn) [Compound 111, 6-[4-Aminomethyl-4-(3-methyl-phenyl)-cyclohexyloxy]-7-chloro-2H-isoquinolin-1-one]"
8,≤ 1000,"COc1ccc(C2(CN)CCC(Oc3cc4cc[nH]c(=O)c4cc3Cl)CC2)cc1 (stereo not drawn) [Compound 114, 6-[4-Aminomethyl-4-(4-methoxy-phenyl)-cyclohexyloxy]-7-chloro-2H-isoquinolin-1-one]"
9,≤ 1000,"NC1(CC(O)CO)CCC(Oc2cc3cc[nH]c(=O)c3cc2Cl)CC1 (mixture of isomers) [Compound 57, 6-[4-amino-4-(2,3-dihydroxy-propyl)-cyclohexyloxy]-7-chloro-2H-isoquinolin-1-one]"
10,≤ 1000,"NCC1(c2ccc(F)cc2)CCC(Oc2cc3cc[nH]c(=O)c3cc2Cl)CC1 (stereo not drawn) [Compound 113, 6-[4-Aminomethyl-4-(4-fluoro-phenyl)-cyclohexyloxy]-7-chloro-2H-isoquinolin-1-one]"
11,≤ 1000,"N[C@]1(C2CC2)CC[C@H](Oc2cc3cc[nH]c(=O)c3cc2Cl)CC1 [Compound 41, 6-(cis-4-Amino-4-cyclopropyl-cyclohexyloxy)-7-chloro-2H-isoquinolin-1-one]"
12,≤ 1000,"C=CCC1(N)CCC(Oc2cc3cc[nH]c(=O)c3cc2Cl)CC1 (mixture of isomers) [Compound 20, 6-(4-Allyl-4-amino-cyclohexyloxy)-7-chloro-2H-isoquinolin-1-one]"
